According to US20230024302A1, “2,3,5-TRISUBSTITUTED PYRAZOLO[1,5-A]PYRIMIDINE COMPOUNDS” (Arcus Biosciences, Inc., priority 2019, published 2023):

Columns and labels:
PI3Kγ (p120γ) = biological target: T1, PI3Kγ (p120γ) (Homo sapiens, UniProt P48736); assay: Inhibition of PI3K kinase activity (ADP Glo), PI3Kγ; settings: Table 1, p120γ, read-out: biochemical potency (PI3Kγ IC50)
T1 construct: purchased Promega V1761
In short: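 IC50 values come from a 4-parameter nonlinear fit of ADP-Glo luminescence, which measures ADP produced as PIP2 is phosphorylated to PIP3. The p120γ enzyme (2× stock 8 nM) sat with compound 1 h at rt before substrate (2× stocks: 50 μM ATP, 0.1 mg/ml PIP2) was added. Phosphorylation then proceeded 60 min at rt.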

PI3Kγ = biological target: T2, PI3Kγ (Homo sapiens, UniProt P48736); assay: PI3Kγ cellular assay in THP-1 cells (AKT pS473 AlphaLISA); assay type: cell-based; settings: Table 1, rhMCP-1 stimulated AKT pS473, read-out: cellular potency (PI3Kγ IC50)
T2 construct: host or cells: THP-1
In short: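 Endogenous AKT S473 phosphorylation, detected by AlphaLISA in lysates, serves as the PI3Kγ activity read-out in stimulated, serum-starved THP-1 cells (1.8×10^5/well).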

T2 sequence (P48736 whole entry): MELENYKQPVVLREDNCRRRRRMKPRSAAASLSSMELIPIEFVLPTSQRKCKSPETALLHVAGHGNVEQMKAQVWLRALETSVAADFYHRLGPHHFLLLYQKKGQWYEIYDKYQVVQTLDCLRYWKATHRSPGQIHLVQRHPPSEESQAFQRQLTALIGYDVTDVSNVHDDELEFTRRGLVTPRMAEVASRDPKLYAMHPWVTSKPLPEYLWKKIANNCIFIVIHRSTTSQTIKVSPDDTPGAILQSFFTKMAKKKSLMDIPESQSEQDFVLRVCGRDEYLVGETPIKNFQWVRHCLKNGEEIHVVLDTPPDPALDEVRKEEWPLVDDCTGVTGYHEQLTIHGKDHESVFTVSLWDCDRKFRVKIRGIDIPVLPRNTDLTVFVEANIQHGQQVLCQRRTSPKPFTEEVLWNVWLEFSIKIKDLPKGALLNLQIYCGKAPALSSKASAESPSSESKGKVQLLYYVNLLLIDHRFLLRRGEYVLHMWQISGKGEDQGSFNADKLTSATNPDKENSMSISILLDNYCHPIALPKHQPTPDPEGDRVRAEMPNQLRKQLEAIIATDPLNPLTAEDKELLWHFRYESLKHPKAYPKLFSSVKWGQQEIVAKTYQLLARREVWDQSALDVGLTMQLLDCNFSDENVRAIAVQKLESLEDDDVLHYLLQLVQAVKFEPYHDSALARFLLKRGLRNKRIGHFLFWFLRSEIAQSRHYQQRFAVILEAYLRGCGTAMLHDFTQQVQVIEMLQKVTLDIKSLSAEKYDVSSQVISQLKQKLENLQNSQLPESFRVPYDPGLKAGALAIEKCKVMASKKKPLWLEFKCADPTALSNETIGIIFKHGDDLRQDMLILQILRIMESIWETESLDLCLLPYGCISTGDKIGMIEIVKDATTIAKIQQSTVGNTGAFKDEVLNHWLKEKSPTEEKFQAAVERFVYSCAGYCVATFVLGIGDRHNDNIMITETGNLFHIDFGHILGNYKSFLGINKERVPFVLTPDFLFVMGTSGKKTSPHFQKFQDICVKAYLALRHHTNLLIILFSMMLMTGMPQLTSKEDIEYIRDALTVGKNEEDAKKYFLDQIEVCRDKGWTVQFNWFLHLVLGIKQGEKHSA
T1 sequence (P48736 whole entry): as above

SMILES | IC50 (PI3Kγ (p120γ)) [µM] | IC50 (PI3Kγ) [µM]
C[C@@H](C1CC1)N1Cc2cc(-c3ccn4nc(N)c(C(=O)N[C@H]5CNC(=O)C5)c4n3)cc(C(F)(F)F)c2C1=O [Example 64, 2-Amino-5-{2-[(1S)-1-cyclopropylethyl]-1-oxo-7-(trifluoromethyl)-2,3-dihydro-1H-isoindol-5-yl}-N-[(3R)-5-oxopyrrolidin-3-yl]pyrazolo[1,5-a]pyrimidine-3-carboxamide] | < 0.1 | < 0.1
CNC(=O)c1c(N)nn2ccc(-c3cc4c(c(C(F)(F)F)c3)C(=O)N([C@@H](C)C3CC3)C4)nc12 [Example 67, 2-[(S)-1-Cyclopropylethyl]-5-[2-amino-3-(methylamino)carbonyl-1,4,7a-triaza-5-indenyl]-7-(trifluoromethyl)-1-isoindolinone] | < 0.1 | < 0.1
CCNC(=O)c1c(N)nn2ccc(-c3cc4c(c(C(F)(F)F)c3)C(=O)N([C@@H](C)C3CC3)C4)nc12 [Example 68, 2-[(S)-1-Cyclopropylethyl]-5-[2-amino-3-(ethylamino)carbonyl-1,4,7a-triaza-5-indenyl]-7-(trifluoromethyl)-1-isoindolinone] | < 0.1 | < 0.1
C[C@@H](C1CC1)N1Cc2cc(-c3ccn4nc(N)c(C(=O)Nc5cccnc5)c4n3)cc(C(F)(F)F)c2C1=O [Example 70, (S)-2-Amino-5-(2-(1-cyclopropylethyl)-1-oxo-7-(trifluoromethyl)isoindolin-5-yl)-N-(pyridin-3-yl)pyrazolo[1,5-a]pyrimidine-3-carboxamide] | < 0.1 | < 0.1

The next lines start with the values.

IC50 (PI3Kγ (p120γ)) [µM] | IC50 (PI3Kγ) [µM] | SMILES
< 0.1 | < 0.1 | C[C@@H](C1CC1)N1Cc2cc(-c3ccn4nc(N)c(C(=O)N[C@H]5CC[C@H](C(C)(C)O)CC5)c4n3)cc(C(F)(F)F)c2C1=O [Example 61, 2-Amino-5-(2-((S)-1-cyclopropylethyl)-1-oxo-7-(trifluoromethyl)isoindolin-5-yl)-N-(trans-4-(2-hydroxypropan-2-yl)cyclohexyl)pyrazolo[1,5-a]pyrimidine-3-carboxamide]
< 0.1 | < 0.1 | C[C@@H](C1CC1)N1Cc2cc(-c3ccn4nc(N)c(C(=O)N[C@H]5CC[C@H](C6(O)CC6)CC5)c4n3)cc(C(F)(F)F)c2C1=O [Example 62, 2-Amino-5-(2-((S)-1-cyclopropylethyl)-1-oxo-7-(trifluoromethyl)isoindolin-5-yl)-N-(trans-4-(1-hydroxycyclopropyl)cyclohexyl)pyrazolo[1,5-a]pyrimidine-3-carboxamide]
< 0.1 | < 0.1 | C[C@@H](C1CC1)N1Cc2cc(-c3ccn4nc(N)c(C(=O)N[C@H]5CCC[C@@H](O)C5)c4n3)cc(C(F)(F)F)c2C1=O [Example 63, 2-Amino-5-{2-[(1S)-1-cyclopropylethyl]-1-oxo-7-(trifluoromethyl)-2,3-dihydro-1H-isoindol-5-yl}-N-[(1S,3R)-3-hydroxycyclohexyl]pyrazolo[1,5-a]pyrimidine-3-carboxamide]
< 0.1 | < 0.1 | C[C@@H](C1CC1)N1Cc2cc(-c3ccn4nc(N)c(C(=O)N[C@H]5C[C@H](O)C5)c4n3)cc(C(F)(F)F)c2C1=O [Example 65, 2-Amino-5-{2-[(1S)-1-cyclopropylethyl]-1-oxo-7-(trifluoromethyl)-2,3-dihydro-1H-isoindol-5-yl}-N-[trans-3-hydroxycyclobutyl]pyrazolo[1,5-a]pyrimidine-3-carboxamide]
< 0.1 | 0.1 to 1 | C[C@@H](C1CC1)N1Cc2cc(-c3ccn4nc(N)c(C(N)=O)c4n3)cc(C(F)(F)F)c2C1=O [Example 66]
< 0.1 | < 0.1 | C[C@@H](C1CC1)N1Cc2cc(-c3ccn4nc(N)c(C(=O)Nc5ccncc5)c4n3)cc(C(F)(F)F)c2C1=O [Example 69, (S)-2-Amino-5-(2-(1-cyclopropylethyl)-1-oxo-7-(trifluoromethyl)isoindolin-5-yl)-N-(pyridin-4-yl)pyrazolo[1,5-a]pyrimidine-3-carboxamide]
